Laboratory results as given in patent publication US20260335295A1, “PHARMACEUTICAL COMPOSITION COMPRISING HTRA ACTIVATOR AS ACTIVE INGREDIENT FOR PREVENTING OR TREATING DEGENERATIVE DISEASES, AND METHOD FOR SCREENING HTRA ACTIVITY MODULATOR” (THE ASAN FOUNDATION, priority 2023, published 2026).

Legend:
[1] = target: T1, HTRA1 (Homo sapiens, UniProt Q92743); test: HTRA1 activity assay with fluorogenic substrate H2-Opt (high-throughput screening); assay type: biochemical
Procedure: (§1) HTRA activity was identified through high-throughput screening using H2-Opt, a commercially available fluorogenic substrate.
(§2) Specifically, purified recombinant HTRA1 protein (50 ng) and a compound (final concentration of 10 μM) were added to 80 μL of an assay buffer in each well of a 96-well plate and were allowed to stand at room temperature for 30 minutes. Immediately after 20 μL of an H2-OPT solution (final concentration of 6.25 μM) was added thereto and mixed, fluorescence signals generated therefrom were measured using an MS microplate reader device manufactured by Molecular Devices. Upon measurement of the fluorescence signals in kinetic mode, excitation and emission were set to 328 nm and 393 nm, respectively, and changes in the fluorescence signals were measured at 37 °C for 3 hours at intervals of 30 seconds.
(§3) Specifically, different concentrations of E09 (0.01, 0.1, 1, 10, and 100 (M) w ere added to purified recombinant HTRA1 and HTRA2, and activities of HTRA1 and HTRA2 were measured in the same manner as the high-throughput screening of Example 1. Fluorescence signals at the end of measurement (3 hours) were measured for each concentration. Graphs obtained by measuring the fluorescence signals of HTRA1 and HTRA2 are shown in FIGS. 2 and 3.

[2] = target: T2, HTRA2 (Homo sapiens, UniProt O43464); test: HTRA2 activity assay with fluorogenic substrate H2-Opt; assay type: biochemical
T2 sequence (O43464 134-458): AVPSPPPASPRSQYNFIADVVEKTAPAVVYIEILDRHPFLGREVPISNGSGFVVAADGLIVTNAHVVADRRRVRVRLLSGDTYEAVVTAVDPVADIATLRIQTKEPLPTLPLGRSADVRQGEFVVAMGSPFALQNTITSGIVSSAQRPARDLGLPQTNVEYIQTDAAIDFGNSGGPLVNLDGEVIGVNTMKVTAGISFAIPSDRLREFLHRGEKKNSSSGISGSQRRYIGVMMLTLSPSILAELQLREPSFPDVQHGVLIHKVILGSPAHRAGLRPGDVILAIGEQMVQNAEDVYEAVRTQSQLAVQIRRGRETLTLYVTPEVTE
Procedure: as §1, §2, §3

[3] = target: T1, HTRA1; test: HTRA1 activation in human blood samples; settings: no method given
[4] = target: T1, HTRA1; test: HTRA1 activity in HeLa cells with HTRA1 activity-based probe DS-1-94, fluorescence microscopy; assay type: cell-based; settings: E09 10 μM, DS-1-94 5 μM, 37 °C, 1 hour, FIG. 4
Procedure: To confirm whether HTRA1 activity increases even when cells are treated with E09, HTRA1 activity according to the presence or absence of E09 was identified by treating Hela cells, which are human adenocarcinoma cells, with an HTRA1 activity-based probe (DS-1-94, final concentration of 5 μM) and E09 (HTRA activator, final concentration of 10 μM).
Specifically, the cells treated with the HIRAI activity-based probe (DS-1-94) and E09 (HTRA activator) were maintained in a 37 °C incubator for 1 hour.

[5] = target: T1, HTRA1; test: HTRA1 enzyme activity on addition of casein, PDZ-opt (GQYYFV) or E09; assay type: biochemical; settings: 10 μM E09 vs 2 μg β-casein or PDZ-opt; 15 minutes at room temperature, measured at 37 °C 3 hours; FIG. 5
Procedure: HTRA activity was measured utilizing E09 and the HTRA activity-based probes synthesized by the method of Example 4.1. Changes in HTRA activity w ere measured for cases in which casein, known as a substrate of an HTRA enzyme, or PDZ-opt (GQYYFV), known as a peptide that activates an HTRA enzyme, was added and a case in which E09 was added.
Specifically, 2 μg of β-casein or PDZ-opt (GQYYFV) or 10 μM of E09 was added to an HTRA1 enzyme by the method of Example 1, the mixture was allowed to stand at room temperature for 15 minutes, and then HTRA1 activity was measured at 37 °C for 3 hours in the same manner as in Example 1, and the results are shown in FIG. 5.

[6] = system: ARPE-19 retinal pigment epithelial cells; test: Cobblestone structure by clusterin and ZO-1 staining in NaIO3-induced dry macular degeneration cell model; assay type: cell-based; settings: pretreated 24 hours, co-treated with NaIO3 12 hours
Procedure: (§4) In order to confirm the preventive or therapeutic effect of compound E09 on age-related macular degeneration (AMD), a dry age-related macular degeneration (AMD)-like cell model induced by treatment with NaIO3 was established.
(§5) Specifically, ARPE-19 retinal pigment epithelial cells were seeded at a density of 1.66× 10^5 cells/cm^2 and cultured for two weeks in a medium containing nicotinamide. Thereafter, the cells were re-seeded onto laminin-coated Transwell inserts.
(§6) After culture for one month in a medium containing nicotinamide, the cells were treated with NaIO3 for 12 hours to induce cell injury (NaIO3-alone treatment group), wherein NaIO3 is commonly used for inducing dry age-related macular degeneration (AMD). Structural changes in the cells were then evaluated by analyzing clusterin and ZO-1. E09 and the HtrA1 inhibitor were dissolved in dimethyl sulfoxide (DMSO) and used for the experiments.
(§7) In order to evaluate the effect of E09 on NaIO3-induced cell injury, E09 was pretreated 24 hours prior to NaIO3 treatment and subsequently co-treated with NaIO3 for 12 hours (E09-treated group).
In addition, under the same conditions, NaIO3 and an HtrA1 inhibitor were administered, and a TUNEL assay was performed to evaluate cytotoxicity.

[7] = system: ARPE-19 retinal pigment epithelial cells; test: Cell death by TUNEL assay in NaIO3-induced dry macular degeneration cell model; assay type: cell-based; settings: pretreated 24 hours, co-treated with NaIO3 12 hours, FIG. 7E-H
Procedure: as §4, §5, §6, §7
In addition, under the same conditions, NaIO3 and an HtrA1 inhibitor were administered, and a TUNEL assay was performed to evaluate cytotoxicity. […]

[8] = system: ARPE-19 retinal pigment epithelial cells; test: Immunostaining of ApoE and Cathepsin D in three-dimensional long-term culture macular degeneration cell model; assay type: cell-based; settings: ARPE-19, 4.5 months culture; vs control group; FIGS. 9A-C
Source text: (§8) In order to verify the preventive or therapeutic effect of compound E09 on age-related macular degeneration (AMD) under conditions similar to an in vivo environment, a macular degeneration cell model using a three-dimensional (3D) long-term culture system was established.
(§9) The model was designed to induce apical-basal polarization of ARPE-19 cells and to reproduce the structural and functional differentiation characteristics of retinal pigment epithelium (RPE), as well as pathological drusen accumulation patterns, through nicotinamide-based long-term culture.
as §5
(§10) Subsequently, the medium was replaced every 2-3 days with a medium containing E09 or an HtrA1 inhibitor, and the cells were differentiated for 4.5 months (untreated control group (ctrl), E09-treated group, and HtrA1 inhibitor-treated group).

[9] = system: ARPE-19 retinal pigment epithelial cells; test: Cell barrier structure by ZO-1 and clusterin staining in three-dimensional long-term culture macular degeneration cell model; assay type: cell-based; settings: ARPE-19, 4.5 months culture; FIGS. 9D-F
Source text: as §8, §9, §5, §10

[10] = system: ARPE-19 retinal pigment epithelial cells; test: Holotomography analysis in three-dimensional long-term culture macular degeneration cell model; assay type: cell-based; settings: ARPE-19, 4.5 months culture; FIGS. 9J-L
Source text: as §8, §9, §5, §10

[11] = system: ARPE-19 retinal pigment epithelial cells; test: Microvilli formation in three-dimensional long-term culture macular degeneration cell model; assay type: cell-based; settings: ARPE-19, 4.5 months culture; FIGS. 9G-I
Source text: as §8, §9, §5, §10

[12] = system: NaIO3-induced mouse macular degeneration model (retina); test: NaIO3-induced mouse macular degeneration model, H&E staining and thickness of retina; assay type: in vivo, C57BL/GJ mice; settings: intravitreal injection on Day −1, NaIO3 IV day 0, eyes five days after NaIO3
Procedure: Specifically, C57BL/GJ mice (6 weeks old) were acclimated for one week, and on experimental day 0, NaIO3 was administered via intravenous injection (IV) to induce retinal injury. To evaluate drug efficacy, E09 or an HtrA1 inhibitor was pre-administered by intravitreal injection one day prior to NaIO3 administration (Day −1).
Five days after administration of NaIO3, the eyes were enucleated, and the tissues. were fixed and sectioned. Hematoxylin & Eosin (H&E) staining was then performed to observe morphological changes in the retina.
In particular, the structural preservation status and thickness changes of the retinal pigment epithelium (RPE) layer, photoreceptor outer segments (POS), and the outer nuclear layer (ONL) were primarily analyzed.

[13] = system: gene sets (transcriptome); test: Transcriptome analysis (GSEA) in a pathological model of macular degeneration (AMD); settings: vs control group, FIG. 12 upper left
Procedure: The collected transcriptome data were analyzed at the gene set level using Gene Set Enrichment Analysis (GSEA).
FIG. 12 is a graph showing the results of GSEA (Gene Set Enrichment Analysis) performed after transcriptome analysis following treatment with Compound E09 or an HTRA1 inhibitor in a pathological model of macular degeneration (AMD).

T1 sequence (Q92743 23-480): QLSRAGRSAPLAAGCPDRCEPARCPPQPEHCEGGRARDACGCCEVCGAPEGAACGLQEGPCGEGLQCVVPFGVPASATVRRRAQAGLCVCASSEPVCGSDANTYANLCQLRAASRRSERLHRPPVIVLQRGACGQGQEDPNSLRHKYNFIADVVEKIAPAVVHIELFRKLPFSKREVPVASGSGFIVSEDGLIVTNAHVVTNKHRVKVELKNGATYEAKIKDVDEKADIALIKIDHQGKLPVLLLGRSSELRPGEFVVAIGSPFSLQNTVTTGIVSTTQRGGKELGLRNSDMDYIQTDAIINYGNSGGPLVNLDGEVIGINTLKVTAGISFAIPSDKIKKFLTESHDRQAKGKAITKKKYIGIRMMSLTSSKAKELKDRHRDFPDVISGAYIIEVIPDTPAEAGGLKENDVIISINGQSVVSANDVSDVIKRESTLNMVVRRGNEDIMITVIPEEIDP

For COC(=O)C1CCC(NC(=O)c2ccc(-c3nc(C)cs3)cc2)(C(=O)OC)CC1 (centres unmarked) [Compound E09, dimethyl 1-(4-(4-methylthiazol-2-yl)benzamido)cyclohexane-1,4-dicarboxylate], the “dose dependency of HTRA1 activity” value ([1]; 0.01, 0.1, 1, 10, and 100 (M) as printed, signal at 3 hours, FIG. 2) was “activates HTRA1 and HTRA2 in a dose-dependent manner”, the “activation ability in HTRA1 (both HTRA1 and HTRA2)” value ([1]; Example 1, in words) was “excellent activation ability in both HTRA1 and HTRA2” and the HTRA1 activation ([1]; screening, final concentration of 10 μM, H2-OPT 6.25 μM, 37 °C, 3 hours, FIG. 1) was “significantly activate HTRA1”. The “dose dependency of HTRA2 activity” value ([2]; 0.01, 0.1, 1, 10, and 100 (M) as printed, signal at 3 hours, FIG. 3) was “activates HTRA1 and HTRA2 in a dose-dependent manner”, the “activation ability in HTRA2 (both HTRA1 and HTRA2)” value ([2]; Example 1, in words) was “excellent activation ability in both HTRA1 and HTRA2” and the “HTRA1 activation in human blood samples” value [3] was “also activates HTRA1 in human blood samples”. The “fluorescence signal of HTRA1 probe (HTRA1 activity)” value [4] was “fluorescence signal markedly increased”, the “HTRA1 activation compared with casein or PDZ-opt (GQYYFV)” value [5] was “activates the HTRA1 enzyme at room temperature far more significantly than casein or PDZ-opt (GQYYFV)” and the “structural damage induced by NaIO3 / cobblestone structure” value ([6]; FIG. 7A-D) was “structural damage induced by NaIO3 was significantly suppressed”. The “monolayer structure of the cells” value ([6]; FIG. 7C) was “the monolayer structure of the cells was preserved”, the “NaIO3-induced cell death (TUNEL assay)” value [7] was “NaIO3-induced cell death was significantly suppressed” and the “expression / accumulation of ApoE (drusen marker)” value [8] was “expression levels of these markers tended to decrease compared with the control group”. The “expression / accumulation of cathepsin D (drusen marker)” value [8] was “expression levels of these markers tended to decrease compared with the control group”, the “ZO-1 and clusterin staining pattern (epithelial barrier)” value [9] was “maintained a continuous and regular staining pattern along the cell boundaries, indicating formation of a robust epithelial barrier structure” and the “cytoskeletal structure (holotomography)” value [10] was “a stable cytoskeletal structure was maintained”. The microvilli formation [11] was “increased microvilli development”, the “tissue continuity (H&E)” value ([12]; FIG. 11A) was “tissue continuity was well maintained” and the ONL thickness ([12]; FIG. 11B) was “significantly suppressed NaIO3-induced thinning and protected retinal structure”. The “separation of the retinal (RPE-POS) layers (H&E)” value ([12]; vs DMSO control, FIG. 11A) was “separation of the retinal layers was markedly suppressed” and the “expression of gene sets associated with retinal vascular lesions (retinal telangiectasia and vascular tortuosity)” value [13] was “overall tendency toward decreased expression”.
